Tests used:
[1] = Human microsome stability assay; assay type: in vitro ADME; conditions: for Clearance of Human microsome: 1 μM test compound, 0.5 mg/mL liver microsomal protein, 37° C., pH 7.4; for human liver microsome stability (in words): qualitative statement
Method: The human microsomal stability assay is used for early assessment of metabolic stability of a test compound in human liver microsomes.
Human liver microsomes (Cat. NO.: 452117, Corning, USA; Cat. NO.: H2610, Xenotech, USA) were preincubated with test compound for 10 minutes at 37° C. in 100 mM potassium phosphate buffer, pH 7.4. The reactions were initiated by adding NADPH regenerating system. The final incubation mixtures contained 1 μM test compound, 0.5 mg/mL liver microsomal protein, 1 mM MgCl2, 1 mM NADP, 1 unit/mL isocitric dehydrogenase and 6 mM isocitric acid in 100 mM potassium phosphate buffer, pH 7.4. After incubation times of 0, 3, 6, 9, 15 and 30 minutes at 37° C., 300 μL of cold acetonitrile (including internal standard) was added to 100 μL incubation mixture to terminate the reaction. Following precipitation and centrifugation, the amount of compound remaining in the samples were determined by LC-MS/MS. Controls of no NADPH regenerating system at zero and 30 minutes were also prepared and analyzed.

TLR9 = target: T1, TLR9 (Homo sapiens, UniProt Q9NR96); conditions: qualitative statement on compounds of WO2018047081; cited from earlier work
T1 sequence (Q9NR96 26-1032): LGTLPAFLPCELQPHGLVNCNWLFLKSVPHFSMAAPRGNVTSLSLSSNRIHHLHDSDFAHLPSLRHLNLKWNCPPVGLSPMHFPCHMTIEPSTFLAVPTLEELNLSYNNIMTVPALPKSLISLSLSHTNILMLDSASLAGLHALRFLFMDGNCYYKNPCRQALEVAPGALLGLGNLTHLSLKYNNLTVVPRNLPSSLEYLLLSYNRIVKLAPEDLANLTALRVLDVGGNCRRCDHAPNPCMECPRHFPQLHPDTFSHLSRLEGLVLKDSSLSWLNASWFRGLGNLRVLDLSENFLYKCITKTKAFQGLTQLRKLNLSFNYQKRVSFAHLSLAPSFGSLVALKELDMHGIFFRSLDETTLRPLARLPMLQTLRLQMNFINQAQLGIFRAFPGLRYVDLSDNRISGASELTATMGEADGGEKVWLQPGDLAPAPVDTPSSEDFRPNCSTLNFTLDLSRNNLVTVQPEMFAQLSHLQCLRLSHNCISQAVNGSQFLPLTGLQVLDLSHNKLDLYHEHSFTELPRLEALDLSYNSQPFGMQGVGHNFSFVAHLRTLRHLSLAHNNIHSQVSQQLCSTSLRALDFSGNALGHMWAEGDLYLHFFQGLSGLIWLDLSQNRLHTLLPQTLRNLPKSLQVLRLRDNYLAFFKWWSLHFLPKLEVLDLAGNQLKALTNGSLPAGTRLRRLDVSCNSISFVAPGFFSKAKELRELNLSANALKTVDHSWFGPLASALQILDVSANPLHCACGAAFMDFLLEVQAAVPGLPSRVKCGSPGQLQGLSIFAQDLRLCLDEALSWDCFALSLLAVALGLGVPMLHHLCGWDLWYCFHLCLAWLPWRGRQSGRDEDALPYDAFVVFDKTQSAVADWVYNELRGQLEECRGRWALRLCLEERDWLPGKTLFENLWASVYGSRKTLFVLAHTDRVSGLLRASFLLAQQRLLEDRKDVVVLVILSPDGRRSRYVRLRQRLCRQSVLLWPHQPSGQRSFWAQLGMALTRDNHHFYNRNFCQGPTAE

Clearance of Human microsome [1] [mL/min/kg] | human liver microsome stability (in words) [1] | SMILES | TLR9 activity (in words) (TLR9)
6.2 |  | C[C@H]1CN(c2ccnc3c2cnn3C)Cc2ccc(N3C[C@@H](N)[C@](C)(O)C3)cc21 [Example 36, (3R,4R)-4-amino-3-methyl-1-[(4R)-4-methyl-2-(1-methylpyrazolo[3,4-b]pyridin-4-yl)-3,4-dihydro-1H-isoquinolin-6-yl]pyrrolidin-3-ol] | 
18.2 | poor human liver microsome stability | Cc1cc(N2CCc3c(c(C)nn3CC34CCC(N(C)C5CCC5)(CC3)CC4)C2)c2cnn(C)c2n1 [Example N79, reference compound] | best TLR9 activity
16.3 | poor human liver microsome stability | Cc1cc(N2CCc3c(c(C)nn3CC34CCC(NC(=O)[C@@H]5COCCN5)(CC3)CC4)C2)c2cnn(C)c2n1 [Example N8, reference compound] | much lower TLR9 activity
6.2 |  | C[C@H]1CN(c2ccnc3c2cnn3C)Cc2ccc(N3CC[N+](C)(C)CC3)cc21.[Cl-] [Example 39, (4R)-6-(4,4-dimethylpiperazin-4-ium-1-yl)-4-methyl-2-(1-methylpyrazolo[3,4-b]pyridin-4-yl)-3,4-dihydro-1H-isoquinoline chloride] | 
